Reference: ChEMBL document CHEMBL1777758, “Selective labeling and monitoring pH changes of lysosomes in living cells with fluorogenic pH sensors” (Bioorg Med Chem Lett, 2011)

Legend:
[1] = Drug uptake in lysosomes of BPAEC at 1 uM after 30 mins by fluorescence microscopy; assay type: ADME, Bos taurus, Lysosome; details: cattle, 0.5 h
[2] = Dissociation constant, pKa of the compound; assay type: physicochemical

Drug uptake [1] | pKa [2] | Compound
Active | 3.2 | CC1=CC(C)=[N+]2C1=C(c1ccc(N(C)C)cc1)c1c(C)cc(C)n1[B-]2(F)F
Active | 5.2 | CCN(CC)c1ccc(C2=C3C(C)=CC(C)=[N+]3[B-](F)(F)n3c(C)cc(C)c32)cc1
Active | 3.2 | CCN(CCCC(=O)OC)c1ccc(C2=C3C(C)=CC(C)=[N+]3[B-](F)(F)n3c(C)cc(C)c32)cc1
Active | 3.2 | CCN(CC)c1ccc(C2=C3C=CC(CCC(=O)OC)=[N+]3[B-](F)(F)n3c(CCC(=O)OC)ccc32)cc1
